Measurements published in patent US4024277A, “Phosphoro-aminosulfenyl derivatives of benzofuran carbamates” (priority 1975, dated 1977).

Key:
German cockroaches [1] = test: Level I immersion test, German cockroaches; format: in vivo, Blattella germanica (Linnaeus); details: GC (male), 5 mg/milliliter; for mortality at 5000 µg/mL: Blattella germanica, 18-24 hours, read-out: % Kill; for % Knockdown: 30 minutes after immersion
Protocol: (§1) e. Insecticidal Activity Against House Flies and German Cockroaches
Compounds of this invention were tested in a Level I test at 5 mg. of active compounds/milliliter of a solution of 40% acetone -- 60% water.
In this test a group of ten house flies (Musca domestica Linnaeus) were completely immersed in 25 ml. of the insecticidal test solution. After 10 seconds of immersion, the test solution is removed. The house flies are then transferred to holding cages lines with paper toweling. In the case of the house flies, the knockdown counts were recorded 10 minutes after termination of the immersion. The percent kill was recorded after 18-24 hours.
The same Level I test technique was employed using male German cockroaches [Blattella germanica (Linnaeus)]. In this case, the knockdown counts were recorded 30 minutes after the termination of the immersion.

Mexican bean beetle [2] = test: Seven-day residual insecticidal activity, Mexican bean beetle; format: in vivo, Epilachna varivestis Mulsant; details: Epilachna varivestis, 48-hour exposure, read-out: % Kill, Mexican Bean Beetle
From the text: (§2) b. Seven-Day Residual Insecticidal Activity
(§3) In this test, a candidate insecticide, in solution, is applied to uninfested plants or containers by dipping or spraying. A seven-day holding period is necessary before infestation. A 48-hour exposure period is observed before evaluation of the tests. The insect species used in this type of test are the same as those listed under initial activity.

plum curculio = test: Seven-day residual insecticidal activity, plum curculio; format: in vivo, Conotrachelus nenuphar (Herbst); details: Conotrachelus nenuphar, 48-hour exposure, read-out: % Kill, Plum Curculio
From the text: as §2, §3

southern armyworm [3] = test: Systemic insecticidal activity (soil/water), southern armyworm; format: in vivo, Spodoptera eridania (Cramer); details: Spodoptera eridania, 48-hour exposure, read-out: % Kill, Southern Armyworm
Protocol: (§4) c. Systemic Insecticidal Acitivity (Soil/Water)
(§5) In this test, a candidate insecticide, in solution, is added to the soil of either uninfested pinto bean seedlings (Phaseolus vulgaris) or uninfested broad bean seedlings (Vicia faba var. Windsor). The plant species used depend on the insect species in the test. Usually, a 72-hour translocation period before infestation is required, followed by a 48-hour exposure period, before evaluation of the tests. The insect species used in the systemic tests are Mexican bean beetle, southern armyworm, pea aphid, and twospotted spider mite.

large milkweed bug = test: Initial insecticidal activity, milkweed bug; format: in vivo, Oncopeltus fasciatus (Dallas); details: Oncopeltus fasciatus, 48-hour exposure, read-out: % Kill, Milkweed Bug
From the text: (§6) a. Initial Insecticidal Activity
(§7) In this test, a candidate insecticide, in solution, is applied to either infested or uninfested plants or containers by spraying or dipping. (The preferred test procedure varies with insect species. The dipping method is better than the spraying method, and vice versa, for certain species of insects. Also some species are better adapted to the test by infesting after the chemical treatment rather than before.) Once the tests have been established, a 48-hour exposure period is observed before reading the tests. Insect species included in these tests are Mexican bean beetle (Epilachna varivestis Mulsant), pea aphid [Acyrthosiphon pisum (Harris)], southern armyworm [Spodoptera eridania (Cramer)], twospotted spider mite (Tetranychus urticae Koch), large milkweed bug [Oncopeltus fasciatus (Dallas)], plum curculio [Conotrachelus nenuphar (Herbst)], confused flour beetle (Tribolium confusum Jacquelin duVal) and granary weevil [Sitophilus granarius (Linnaeus)]. Test results are set forth in Table I. A control sample, comprising the solution without the candidate insecticide, is also included.

German cockroaches [4] = test: Level II topical test, German cockroaches; format: in vivo, Blattella germanica (Linnaeus); details: GC (male), one microgram topically per insect; for mortality at 0.001 mg: Blattella germanica, topical, read-out: % Kill; for % Knockdown: 30 minutes
Protocol: as §1
(§8) In a Level II test the compounds of this invention were tested for insecticidal activity against female house flies (resistant) and male German cockroaches. Ten insects were anesthetized with carbon dioxide and placed in a container for about 2 hours, during which time the insects recovered to normal activity. The container confining the insects is fitted with a plunger which is used to force the insects against a nylon mesh at one end of the container. One microliter of an acetone solution containing one microgram of the candidate insecticide was applied topically to each insect. The plunger was withdrawn and the insects were allowed to move freely about the container. Knockdown counts were recorded 10 minutes after treatment of house flies and 30 minutes after treatment of cockroaches.

Mexican bean beetle [5] = test: Systemic insecticidal activity (soil/water), Mexican bean beetle; format: in vivo, Epilachna varivestis Mulsant; details: Epilachna varivestis, 48-hour exposure, read-out: % Kill, Mexican Bean Beetle
Protocol: as §4, §5

pea aphid [6] = test: Initial insecticidal activity, pea aphid; format: in vivo, Acyrthosiphon pisum (Harris); details: Acyrthosiphon pisum, 48-hour exposure, read-out: % Kill, Pea Aphid
From the text: as §6, §7

pea aphid [7] = test: Systemic insecticidal activity (soil/water), pea aphid; format: in vivo, Acyrthosiphon pisum (Harris); details: Acyrthosiphon pisum, 48-hour exposure, read-out: % Kill, Pea Aphid
Protocol: as §4, §5

[8] = test system: female house flies (resistant); test: Level II topical test, house flies; format: in vivo, Musca domestica Linnaeus; details: HF (female, resistant), one microgram topically per insect; for % Knockdown: 10 minutes; for mortality at 0.001 mg: Musca domestica, topical, read-out: % Kill
Protocol: as §1, §8

twospotted spider mite [9] = test: Systemic insecticidal activity (soil/water), twospotted spider mite; format: in vivo, Tetranychus urticae Koch; details: Tetranychus urticae, 48-hour exposure, read-out: % Kill, Twospotted Spider Mite
Protocol: as §4, §5

confused flour beetle = test: Initial insecticidal activity, confused flour beetle; format: in vivo, Tribolium confusum Jacquelin duVal; details: Tribolium confusum, 48-hour exposure, read-out: % Kill, Confused Flour Beetle
From the text: as §6, §7

southern armyworm [10] = test: Seven-day residual insecticidal activity, southern armyworm; format: in vivo, Spodoptera eridania (Cramer); details: Spodoptera eridania, 48-hour exposure, read-out: % Kill, Southern Armyworm
From the text: as §2, §3

twospotted spider mite [11] = test: Initial insecticidal activity, twospotted spider mite; format: in vivo, Tetranychus urticae Koch; details: Tetranychus urticae, 48-hour exposure, read-out: % Kill, Twospotted Spider Mite
From the text: as §6, §7

For `CCCOP(=O)(OCCC)N(C)SN(C)C(=O)Oc1cccc2c1OC(C)(C)C2` [2(d), 2,3-dihydro-2,2-dimethyl-7-benzofuranyl [(N-di-n-propoxyphosphinyl) (N-methyl)aminosulfenyl][methyl]carbamate], the mortality at 5000 µg/mL (German cockroaches [1]) was 100%, the “% Knockdown” value (German cockroaches [1]) was 100% and the mortality at 39 ppm (Mexican bean beetle [2]) was 50%. For the same molecule, the mortality at 156 ppm (Mexican bean beetle [2]) was 76%, the mortality at 1250 ppm (Mexican bean beetle [2]) was 100% and the mortality at 39 ppm (plum curculio) was 0%. The mortality at 156 ppm (plum curculio) was 5%, the mortality at 1250 ppm (plum curculio) was 86% and the mortality at 10 ppm (southern armyworm [3]) was 0%. It also gave a mortality at 39 ppm (southern armyworm [3]) of 94%, a mortality at 156 ppm (southern armyworm [3]) of 100% and a mortality at 39 ppm (large milkweed bug) of 100%. The mortality at 156 ppm (large milkweed bug) was 100%, the mortality at 1250 ppm (large milkweed bug) was 100% and the mortality at 0.001 mg (German cockroaches [4]) was 10%. For the same molecule, the “% Knockdown” value (German cockroaches [4]) was 0%, the mortality at 10 ppm (Mexican bean beetle [5]) was 20% and the mortality at 39 ppm (Mexican bean beetle [5]) was 85%. For the same molecule, the mortality at 156 ppm (Mexican bean beetle [5]) was 100%, the mortality at 39 ppm (pea aphid [6]) was 86% and the mortality at 156 ppm (pea aphid [6]) was 100%. For the same molecule, the mortality at 1250 ppm (pea aphid [6]) was 100%, the mortality at 10 ppm (pea aphid [7]) was 0% and the mortality at 39 ppm (pea aphid [7]) was 11%. The mortality at 156 ppm (pea aphid [7]) was 80%, the “% Knockdown” value [8] was 0% and the mortality at 0.001 mg [8] was 40%. For the same molecule, the mortality at 10 ppm (twospotted spider mite [9]) was 0%, the mortality at 39 ppm (twospotted spider mite [9]) was 2% and the mortality at 156 ppm (twospotted spider mite [9]) was 18%. It also gave a mortality at 39 ppm (confused flour beetle) of 0%, a mortality at 156 ppm (confused flour beetle) of 2% and a mortality at 1250 ppm (confused flour beetle) of 72%. It also gave a mortality at 39 ppm (southern armyworm [10]) of 0%, a mortality at 156 ppm (southern armyworm [10]) of 0% and a mortality at 1250 ppm (southern armyworm [10]) of 60%. The mortality at 39 ppm (twospotted spider mite [11]) was 39%, the mortality at 156 ppm (twospotted spider mite [11]) was 91% and the mortality at 1250 ppm (twospotted spider mite [11]) was 100%.
For `CCCOP(=O)(OCCC)N(CCC)SN(C)C(=O)Oc1cccc2c1OC(C)(C)C2` [3(c)], the mortality at 5000 µg/mL (German cockroaches [1]) was 100%, the “% Knockdown” value (German cockroaches [1]) was 100% and the mortality at 39 ppm (Mexican bean beetle [2]) was 28%. The mortality at 156 ppm (Mexican bean beetle [2]) was 92%, the mortality at 1250 ppm (Mexican bean beetle [2]) was 100% and the mortality at 39 ppm (plum curculio) was 5%. For the same molecule, the mortality at 156 ppm (plum curculio) was 10%, the mortality at 1250 ppm (plum curculio) was 95% and the mortality at 10 ppm (southern armyworm [3]) was 0%. The mortality at 39 ppm (southern armyworm [3]) was 0%, the mortality at 156 ppm (southern armyworm [3]) was 95% and the mortality at 39 ppm (large milkweed bug) was 85%. The mortality at 156 ppm (large milkweed bug) was 100%, the mortality at 1250 ppm (large milkweed bug) was 100% and the mortality at 0.001 mg (German cockroaches [4]) was 0%. The “% Knockdown” value (German cockroaches [4]) was 0%, the mortality at 10 ppm (Mexican bean beetle [5]) was 44% and the mortality at 39 ppm (Mexican bean beetle [5]) was 44%. It also gave a mortality at 156 ppm (Mexican bean beetle [5]) of 94%, a mortality at 39 ppm (pea aphid [6]) of 31% and a mortality at 156 ppm (pea aphid [6]) of 100%. It also gave a mortality at 1250 ppm (pea aphid [6]) of 100%, a mortality at 10 ppm (pea aphid [7]) of 0% and a mortality at 39 ppm (pea aphid [7]) of 0%. The mortality at 156 ppm (pea aphid [7]) was 79%, the “% Knockdown” value [8] was 0% and the mortality at 0.001 mg [8] was 40%. The mortality at 10 ppm (twospotted spider mite [9]) was under 1%, the mortality at 39 ppm (twospotted spider mite [9]) was under 1% and the mortality at 156 ppm (twospotted spider mite [9]) was 5%. It also gave a mortality at 39 ppm (confused flour beetle) of 0%, a mortality at 156 ppm (confused flour beetle) of 2% and a mortality at 1250 ppm (confused flour beetle) of 55%. It also gave a mortality at 39 ppm (southern armyworm [10]) of 0%, a mortality at 156 ppm (southern armyworm [10]) of 0% and a mortality at 1250 ppm (southern armyworm [10]) of 0%. It also gave a mortality at 39 ppm (twospotted spider mite [11]) of 32%, a mortality at 156 ppm (twospotted spider mite [11]) of 86% and a mortality at 1250 ppm (twospotted spider mite [11]) of 100%.
For `CCCN(SN(C)C(=O)Oc1cccc2c1OC(C)(C)C2)P(=O)(Oc1ccccc1)Oc1ccccc1` [7(c)], the mortality at 5000 µg/mL (German cockroaches [1]) was 0%, the “% Knockdown” value (German cockroaches [1]) was 0% and the mortality at 39 ppm (Mexican bean beetle [2]) was 20%. It also gave a mortality at 156 ppm (Mexican bean beetle [2]) of 89%, a mortality at 1250 ppm (Mexican bean beetle [2]) of 100% and a mortality at 39 ppm (plum curculio) of 5%. The mortality at 156 ppm (plum curculio) was 0%, the mortality at 1250 ppm (plum curculio) was 0% and the mortality at 39 ppm (southern armyworm [3]) was 0%. It also gave a mortality at 156 ppm (southern armyworm [3]) of 0%, a mortality at 39 ppm (large milkweed bug) of 5% and a mortality at 156 ppm (large milkweed bug) of 70%. The mortality at 1250 ppm (large milkweed bug) was 95%, the mortality at 39 ppm (Mexican bean beetle [5]) was 45% and the mortality at 156 ppm (Mexican bean beetle [5]) was 100%. It also gave a mortality at 39 ppm (pea aphid [6]) of 11%, a mortality at 156 ppm (pea aphid [6]) of 0% and a mortality at 1250 ppm (pea aphid [6]) of 0%. The mortality at 39 ppm (pea aphid [7]) was 0%, the mortality at 156 ppm (pea aphid [7]) was 0% and the mortality at 39 ppm (twospotted spider mite [9]) was 4%. The mortality at 156 ppm (twospotted spider mite [9]) was 1%, the mortality at 39 ppm (confused flour beetle) was 0% and the mortality at 156 ppm (confused flour beetle) was 0%. The mortality at 1250 ppm (confused flour beetle) was 0%, the mortality at 39 ppm (southern armyworm [10]) was 0% and the mortality at 156 ppm (southern armyworm [10]) was 0%. It also gave a mortality at 1250 ppm (southern armyworm [10]) of 0%, a mortality at 39 ppm (twospotted spider mite [11]) of 1% and a mortality at 156 ppm (twospotted spider mite [11]) of 6%. The mortality at 1250 ppm (twospotted spider mite [11]) was 5%.
